Measured values: US12409154B2, “Pharmaceutical compositions for use in treating pain” (TAIWAN LIPOSOME COMPANY, LTD., priority 2019, dated 2025)

How the values were obtained:
[1] = tested on: adult subjects following inguinal hernia repair surgery; assay: Phase I/II study, single infiltrative local administration after inguinal hernia repair surgery: efficacy (NPRS pain, rescue analgesic use); assay type: in vivo, human; conditions: TLC590 475 mg, ropivacaine group 150 mg
From the text: A Phase I/II, randomized, double-blind, comparator-controlled, dose-escalation study to assess the safety, PK, and efficacy of single postsurgical application of the anesthetic composition in accordance with the present disclosure (denoted as TLC590) compared with Naropin® via a single infiltrative local administration in adult subjects following inguinal hernia repair surgery. The study enrolled approximately 64 evaluable subjects who met all entry criteria across 4 cohorts. Dose escalation of a single postsurgical administration of TLC590 was performed using sequential dose levels, as compared with Naropin®. Dose-escalation were determined by review of […] (TEAEs) and all serious AEs (SAEs) by a safety monitoring committee (SMC). […] Pain intensity at rest and with movement assessed using an 11-point NPRS ranging from a score of 0 (no pain) to 10 (worst possible pain). • 2. […]

[2] = pKa of ropivacaine and calculated uncharged fraction; assay type: physicochemical; conditions: pH 6.0; calculated from pKa
Protocol: In some embodiments, the lipid-based complex of the anesthetic composition is formed by hydrating a lyophilized lipid cake with a pharmaceutically acceptable buffer solution at a pH higher than 5.5. […] In some embodiments, the lipid cake according to the present disclosure is prepared by dissolving apolar ropivacaine, phospholipid, and cholesterol in a solvent system, e.g., tert-butanol alone or a tert-butanol/water cosolvent, followed by removing the solvent system using a lyophilization technique.

In the case of `CCCN1CCCC[C@H]1C(=O)Nc1c(C)cccc1C` [ropivacaine], the “median time to first rescue analgesic” value [1] is reported as 13 h, the “median time to first postsurgical opioid use” value ([1]; among those who used rescue opioid) is reported as 3.3 h and the “theoretically uncharged ropivacaine, share of available ropivacaine” value [2] is reported as 0.8%.
